“Also recorded” adds a separate entry of the source.
Target: T1, HOIP RBR domain (Homo sapiens, UniProt Q96EP0)
T1 construct: made in house; host or cells: E. coli BL21-GOLD(DE3)
T1 sequence (Q96EP0 697-1072): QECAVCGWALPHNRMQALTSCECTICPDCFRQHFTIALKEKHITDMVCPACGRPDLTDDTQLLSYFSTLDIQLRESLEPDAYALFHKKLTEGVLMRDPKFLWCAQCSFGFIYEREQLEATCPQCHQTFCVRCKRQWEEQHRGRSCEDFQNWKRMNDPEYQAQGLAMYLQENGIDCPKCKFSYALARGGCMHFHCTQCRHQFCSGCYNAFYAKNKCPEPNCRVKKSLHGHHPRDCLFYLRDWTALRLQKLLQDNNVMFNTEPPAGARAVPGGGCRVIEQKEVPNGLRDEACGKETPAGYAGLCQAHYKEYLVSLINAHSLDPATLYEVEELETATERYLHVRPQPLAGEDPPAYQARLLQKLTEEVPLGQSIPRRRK
Test: Fluorescence-based ubiquitin thioester transfer assay
Assay type: biochemical
Conditions: HOIP RBR prelabeled with compound; E2 UbcH7
Method: overnight, and further purified by size-exclusion chromatography (Superdex 75/ÄKTA purifier).
The appropriate fractions were concentrated to 4 mL in a 3.5 kDa MWCO protein concentrator (Merck). The protein concentration was measured on a Nanodrop UV spectrophotometer (absorbance at 650 nm) as 19 µM and corroborated by SDS PAGE. Labelling was confirmed by protein LC-MS (Supplementary Figure S10). The labelled protein was aliquoted, flash frozen and […]
Supplementary Figure S10. TIC traces of the deconvoluted protein masses of the M1C ubiquitin mutant (M1C Ub) and the AlexaFluor647 labelled M1C ubiquitin mutant (M1C UbA647).
Formation of the HOIP RBR-(5) conjugate
The HOIP RBR domain (7.5 µM) was incubated (Eppendorf Thermomixer) with inhibitor (5) (750 µM, 1.5% DMSO) in 50 mM HEPES, 150 mM NaCl, pH 7.5 buffer at 600 rpm, 23 °C for 18 h. […] The protein concentration was measured on Nanodrop UV spectrophotometer (absorbance at 280 nm), and the protein was flash frozen in liquid nitrogen […]
(10 min), HOIP RBR or HOIP-RBR-(5) conjugate (5 min), C-terminally His6-tagged ubiquitin (10 min). […] The aliquots were analyzed by SDS PAGE and the gels scanned at 700 nm (LICOR Odyssey CLx) using auto-adjustment of the fluorescence intensity, then stained with Coomassie (Figure 4B and Supplementary Figure S11). […]

Compound: COC(=O)/C=C/CNC(=O)c1cc2c([nH]c1=O)CCC2 [Compound 5]
- formation of E3~Ub thioester / loading of ubiquitin onto HOIP RBR: inhibits formation of the E3∼Ub thioester intermediate; also recorded: effectively prevented the loading of ubiquitin onto the E3

— paper PMC6383986, “Fragment-Based Covalent Ligand Screening Enables Rapid Discovery of Inhibitors for the RBR E3 Ubiquitin Ligase HOIP” (Journal of the American Chemical Society, 2019)
